How the values were obtained:
recombinant PP1α = target: T1, recombinant PP1α (Oryctolagus cuniculus, UniProt P62139); test: Malachite green dephosphorylation of generic KT(pT)IRR peptide by PP1α; assay type: biochemical; conditions: 1H4 300 µM, KT(pT)IRR 3 µM; control 1.4
T1 construct: purchased New England Biolabs, Ipswich, MA
Description: To determine whether 1H4 has an effect on the enzymatic activity of PP1, we used recombinant PP1α and a generic substrate, phosphorylated KT(pT)IRR peptide which is recognized equally well by PP1 and PP2A [13]. The KT(pT)IRR peptide (3 µM) was efficiently dephosphorylated by PP1α (Fig. 6A, V0 = 1.4 µM·min^−1). […] We further investigated the effect of 1H4 on PP1 enzymatic activity by analyzing the initial velocity versus KT(pT)IRR peptide substrate concentration plots in the absence and presence of 1H4 that were approximated by Michaelis-Menten equation (Fig. 6B) and also visualized in Lineweaver-Burk representation (Fig. 6C).
Figure 6 1H4 has no effect on PP1 enzymatic activity. […] The amount of released phosphate was quantified by the absorbance and phosphate concentration was recalculated using standards. Initial velocity was calculated by linear regression in Prism. […] The amount of released phosphate was quantified with malachite green. The VMAX and Km were calculated by non-linear regression analysis for Michaelis-Menten equation in Prism. […]
Inhibition data were analyzed using GraphPad Prism 4 software (GraphPad Software, La Jolla, CA). The IC50 values were determined from a sigmoidal dose-response (variable slope) curve using four parameter logistic equation Y = Bottom+(Top-Bottom)/([…]). […]

PP1α = PP1α (Homo sapiens, UniProt P62136); test: Nuclear and cytoplasmic distribution of PP1α-EGFP in HeLa and 293T cells; assay type: cell-based; set-up: expressed in transfected cells; host or cells: HeLa; 293T
Excerpt: In live cells, PP1α is dynamically distributed between the cytoplasm and the nucleus, and its shuttling into the nucleus is thought to be regulated by its interaction with sds22 and inhibitor-3 regulatory subunits. […] We analyzed the effect of 1H4 on nuclear localization of PP1α in HeLa cells that were transfected with Flag-Tat and PP1α-EGFP expression vectors and treated with 1H4 or a control compound for 18hrs. In untreated cells, PP1α was localized in the perinuclear area and cytoplasm (Fig. 8A). Co-expression of Tat increased nuclear and perinuclear localization of PP1α (Fig. 8B). Co-expression of mutant Tat ^35QACA^38 in contrast led to a more homogeneous distribution of PP1α (Fig. 8C). […] To achieve quantifiable results, we measured fluorescence of PP1α-EGFP in nuclear and cytoplasmic fractions of 293T cells that were transfected with PP1α-EGFP or PP1α-EGFP and Tat expression vectors and treated with 1H4. […]
Figure 8 1H4 compound disrupts the Tat-mediated translocation of PP1 into the nucleus. […] Fluorescence was measured in the nuclear and cytoplasmic fractions using Perkin-Elmer Luminoscan. […]
Nuclear and cytoplasmic extracts were prepared using a modification of previously described method. […] Fluorescence was measured in cytoplasmic and nuclear lysates at 480 nm excitation and 510 nm emission on Luminescence Spectrometer LS50B (Perkin-Elmer).

PP1α, sequence (P62136 whole entry): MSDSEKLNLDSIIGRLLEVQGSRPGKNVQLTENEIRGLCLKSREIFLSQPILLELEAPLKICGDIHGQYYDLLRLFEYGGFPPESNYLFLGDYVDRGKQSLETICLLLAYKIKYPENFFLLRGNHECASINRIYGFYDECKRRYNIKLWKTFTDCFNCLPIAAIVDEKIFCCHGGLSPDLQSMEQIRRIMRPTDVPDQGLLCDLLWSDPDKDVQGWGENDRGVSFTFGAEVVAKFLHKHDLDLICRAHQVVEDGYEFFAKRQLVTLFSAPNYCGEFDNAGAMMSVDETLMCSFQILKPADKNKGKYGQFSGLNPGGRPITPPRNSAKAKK
T1 sequence (P62139 whole entry): as the sequence (P62136 whole entry) above

For `COCCNC(=O)COC(=O)c1c2c(nc3ccccc13)/C(=C/c1ccc(O)cc1)CCC2` [1H4], the “V0 of KT(pT)IRR peptide dephosphorylation by PP1α in presence of compound” value (recombinant PP1α) was 1.3 µM·min^-1, the “Nuclear PP1α-EGFP fluorescence in fractionated cells” value (PP1α; 293T cells, absence and presence of Tat, versus untreated or 1G3) was “significant decrease of nuclear PP1α-EGFP” and the “Nuclear localization of PP1α in presence of Tat (fluorescence microscopy)” value (PP1α; HeLa cells, Flag-Tat and PP1α-EGFP, 10 µM, 18 hours) was “diminished nuclear localization of PP1α”.

— article PMC3387161, “Small Molecules Targeted to a Non-Catalytic “RVxF” Binding Site of Protein Phosphatase-1 Inhibit HIV-1” (PLoS ONE, 2012)
